This note sets out measurements from patent publication US11278561B2, “Combination treatment for hematological cancers” (Geron Corporation, priority 2016, dated 2022).

Format in all cases: cell-based
The test system of one series is KG-1 cells. The series is described as follows: Annexin V / Propidium Iodide flow cytometry apoptosis assay in KG-1. Also noted: key to Excess over HSA / Excess over BLISS: excess in % apoptotic (Annexin V/PI double-labeled) cells over HSA/Bliss. To be noted: ABT-199 0 nM, r7 Mismatch 50 μM, r8 Mismatch 25 μM, r9 Non-complimentary 50 μM, r10 Non-complimentary 25 μM. The method, then:
(§1) AML tumor cells KG-1 (ATCC #CCL-246) and MOLM-13 (DSMZ #ACC554) were plated at a density of ˜20,000 cells per well on 96-well polystyrene U-bottom tissue culture plates (Corning catalog #353777) in RPMI-1640 (ThermoFisher catalog #11875-085) supplemented with 10% fetal bovine serum (ThermoFisher catalog #16140-089) and 1% penicillin/streptomycin antibiotic cocktail (ThermoFisher catalog 15140-122) and grown in a 37° C. incubator under humidified 5% CO2 atmosphere.
(§2) At 48 and 96 hours, cells were measured for healthy, early apoptotic and apoptotic populations with an Annexin V (interior cell membrane stain) plus Propidium Iodide (PI, DNA binding dye) flow cytometry assay kit (BioLegend catalog 640914). Annexin V detects the externalization of phosphatidylserine in apoptotic cells using recombinant annexin V conjugated to green-fluorescent FITC dye and dead cells using Propidium iodide (PI). Propidium iodide stains necrotic cells with red fluorescence. After treatment with both probes, early apoptotic cells show green fluorescence, apoptotic (dead) cells show red and green fluorescence, and live cells show little or no fluorescence. […] Cells were stained for 30 minutes at 4° C. in the dark, followed by 3× washes with PBS and suspension in FACs Stain Buffer (BD catalog 554657) prior to interrogation on a BD FACs Canto flow cytometer for forward scatter, side scatter, FITC, and PE channels. […] The percentage of apoptotic cells (double labeled) was used to calculate combination effects using both the Highest Single Agent (HSA) and Bliss additivity models (J Tang et al. Frontiers in Pharmacology. 2015; 6 (181)).
(§3) Using the HSA model, the cytotoxic effect of the combined condition (“C”) was compared to the effect generated by each of the single agent controls (“A” or “B”) for the respective dose in the combination: Excess over HSA=C−A (if A>B) or C−B (if A<B)
(§4) The Bliss model performs a similar comparison, but instead of the highest effect of single agent, the Bliss model subtracts from the combination a value equal to the sum of each single agent minus their product: Excess over Bliss=C−[(A+B)−(A*B)]

For series [1], the system named is MOLM-13 cells. The series is described as follows: Annexin V / Propidium Iodide flow cytometry apoptosis assay in MOLM-13. Set-up: key to Excess over HSA / Excess over BLISS: excess = combination minus HSA/Bliss expected, in % apoptotic cells. The conditions noted are these: for Loewe Excess: ABT-199 nM: r7 1000, r8 500, r9 100, r10 20, r11 5, r12 1, r13 0.2, r14 0.04, r15 0; for Excess over HSA: MOLM-13, 96 hours, ABT-199 0 nM, r7 Mismatch 50 μM, r8 Mismatch 25 μM, r9 Non-complimentary 50 μM, r10 Non-complimentary 25 μM. The protocol: as §1, §2, §3, §4
Treated cells were analyzed by Flow cytometry for Annexin V and Propidium Iodide staining as described previously. Events gated in the apoptotic population (Annexin V+/Propidium Iodide+) were used to determine synergy scores for the combination matrix. Combination data analysis was generated by the Horizon Chalice™ Analyzer Software (Horizon Discovery Group, Cambridge, UK). […] Mismatch and non-complimentary controls were not utilized in this experiment.
Combination conditions undergo isobolar analysis to generate a combination index and graphically represent the behavior of a combination with synergistic pairs falling below the isobologram and antagonistic falling above it (additive combinations would be expected to fall on the line). The Horizon Chalice™ Analyzer Software additionally provides a synergy score, with values greater than 1 indicating synergy.

For series [2], the system named is MOLM-13 cells. Described as above. Also noted: key to Excess over BLISS: Excess over Bliss = C−[(A+B)−(A*B)], % apoptotic cells; key to Excess over HSA: excess = combination minus HSA/Bliss expected, in % apoptotic cells. To be noted: for Loewe Excess: MOLM-13, 48 hour treatment, ABT-199 nM: r7 1000, r8 500, r9 100, r10 20, r11 5, r12 1, r13 0.2, r14 0.04, r15 0; for Excess over BLISS / Excess over HSA: ABT-199 0 nM, r7 Mismatch 50 μM, r8 Mismatch 25 μM, r9 Non-complimentary 50 μM, r10 Non-complimentary 25 μM.

{PalmAG} = palmitoyl amide conjugated through an aminoglycerol linker to the 5'-thiophosphate; {PalmN} = palmitoyl amide conjugated through the terminal 3'-amino group; [NPS] = N3'→P5' thiophosphoramidate internucleoside linkage; {NH2} = amino group

As to “Mismatch: control oligonucleotide 5′-R-TAGGTGTAAGCAA-NH2-3′ (SEQ ID NO: 2), palmitoyl amide conjugated NPS-linked oligonucleotide (all [NPS], 5' {PalmAG}, 3' {NH2}, sugars by position and methylation of C not given here)”, the “Excess over BLISS” value with KG-1 cells (KG-1, 48 hours) turned out to be 0; in the series with KG-1 cells (KG-1, 96 hours) it was 0; in the series with MOLM-13 cells [2] (MOLM-13, 48 hours), 0; in the series with MOLM-13 cells [2] (MOLM-13, 96 hours) it was 0. In addition, the “Excess over HSA” value in the series with KG-1 cells (KG-1, 48 hours) worked out at 0; in the series with KG-1 cells (KG-1, 96 hours), 0; with MOLM-13 cells [1] it was 0; with MOLM-13 cells [2] (MOLM-13, 48 hours), 0. Also, the “Loewe Excess” value with MOLM-13 cells [1] (MOLM-13, 48 hour treatment, Mismatch 1 μM) turned out to be 4; in the series on MOLM-13 cells [1] (MOLM-13, 48 hour treatment, Mismatch 5 μM) it was 2; in the series with MOLM-13 cells [1] (MOLM-13, 48 hour treatment, Mismatch 25 μM), 1; in the series with MOLM-13 cells [1] (MOLM-13, 48 hour treatment, Mismatch 50 μM) it was 0; with MOLM-13 cells [1] (MOLM-13, 48 hour treatment, Mismatch 75 μM), 0; with MOLM-13 cells [1] (MOLM-13, 96 hour treatment, Mismatch 1 μM) it was 1. Besides, the “Loewe Excess” value in the series on MOLM-13 cells [1] (MOLM-13, 96 hour treatment, Mismatch 5 μM) is 0; in the series on MOLM-13 cells [1] (MOLM-13, 96 hour treatment, Mismatch 10 μM) it was −1; in the series with MOLM-13 cells [1] (MOLM-13, 96 hour treatment, Mismatch 25 μM), −2; in the series on MOLM-13 cells [1] (MOLM-13, 96 hour treatment, Mismatch 50 μM) it was −1; in the series on MOLM-13 cells [1] (MOLM-13, 96 hour treatment, Mismatch 75 μM), 1; in the series on MOLM-13 cells [2] (Mismatch 10 μM), −1.
As for “Non-complimentary: control oligonucleotide 5′-AACAGATTGGGAT-R-3′ (SEQ ID NO: 3), palmitoyl amide on the terminal 3′ amino group of an NPS oligonucleotide (all [NPS], 3' {PalmN}, sugars by position and methylation of C not given here)”, the “Excess over BLISS” value in the series with KG-1 cells (KG-1, 48 hours) amounted to 0; in the series with KG-1 cells (KG-1, 96 hours) it was 0; in the series on MOLM-13 cells [2] (MOLM-13, 48 hours), 0; in the series on MOLM-13 cells [2] (MOLM-13, 96 hours) it was 0. Also, the “Excess over HSA” value in the series on KG-1 cells (KG-1, 48 hours) stood at 0; in the series on KG-1 cells (KG-1, 96 hours) it was 0; in the series on MOLM-13 cells [1] it was 0; in the series with MOLM-13 cells [2] (MOLM-13, 48 hours), 0. Further, the “Loewe Excess” value is recorded as 6 with MOLM-13 cells [1] (MOLM-13, 48 hour treatment, Non-Complimentary 1 μM); −2 in the series on MOLM-13 cells [1] (MOLM-13, 48 hour treatment, Non-Complimentary 10 μM); −2 in the series on MOLM-13 cells [1] (MOLM-13, 48 hour treatment, Non-Complimentary 50 μM); 1 in the series with MOLM-13 cells [1] (MOLM-13, 48 hour treatment, Non-Complimentary 75 μM); 1 in the series with MOLM-13 cells [1] (MOLM-13, 96 hour treatment, Non-Complimentary 1 μM); 0 in the series on MOLM-13 cells [1] (MOLM-13, 96 hour treatment, Non-Complimentary 5 μM). The “Loewe Excess” value in the series on MOLM-13 cells [1] (MOLM-13, 96 hour treatment, Non-Complimentary 10 μM) was −1; in the series with MOLM-13 cells [1] (MOLM-13, 96 hour treatment, Non-Complimentary 25 μM), −1; with MOLM-13 cells [1] (MOLM-13, 96 hour treatment, Non-Complimentary 50 μM), −1; with MOLM-13 cells [1] (MOLM-13, 96 hour treatment, Non-Complimentary 75 μM), 1; in the series on MOLM-13 cells [2] (Non-Complimentary 5 μM) it was −1; in the series with MOLM-13 cells [2] (Non-Complimentary 25 μM) it was −1.
